The values below come from US20260070945A1, “MACROCYCLIC IMMUNOMODULATORS” (Bristol-Myers Squibb Company, priority 2022, published 2026).

As a reminder, the IC50 is the concentration at which inhibition is half-maximal.

Where a SMILES comes first, the peptide text is derived from it. Bridges are numbered along the chain shown (N, C = ends). [ ]: non-standard residue; d: D form. The star is where a group is joined. ξ: configuration not given here. Phe(4-CH2CH2COOH) = N[C@@H](Cc1ccc(CCC(=O)O)cc1)C(=O)O; Phe(3-CF3) = N[C@@H](Cc1cccc(C(F)(F)F)c1)C(=O)O; Phe(4-CF3) = N[C@@H](Cc1ccc(C(F)(F)F)cc1)C(=O)O; Phe(4-COOH) = N[C@@H](Cc1ccc(C(=O)O)cc1)C(=O)O; Bip = N[C@@H](Cc1ccc(-c2ccccc2)cc1)C(=O)O; NH(CH2)14COOH = O=C(O)CCCCCCCCCCCCCCN*; NH(CH2)12COOH = O=C(O)CCCCCCCCCCCCN*; Val(3-OH) = CC(C)(O)[C@H](N)C(=O)O; Cha = N[C@@H](CC1CCCCC1)C(=O)O; Thr(3ξ) = CC(O)[C@H](N)C(=O)O; dDab = NCC[C@@H](N)C(=O)O; Carboxymethyl = O=C(O)C*; NMeA = CN[C@@H](C)C(=O)O; Dab = NCC[C@H](N)C(=O)O; AEEA = NCCOCCOCC(=O)O

For this assay, the target named is T1, PD-1/PD-L1 interaction (PE-labeled human PD-L1-Ig binding to Jurkat cell line over-expressing human PD-1) (Homo sapiens, UniProt Q15116).
T1 construct: expressed in transfected cells; host or cells: Jurkat
T1 sequence (Q15116 25-288): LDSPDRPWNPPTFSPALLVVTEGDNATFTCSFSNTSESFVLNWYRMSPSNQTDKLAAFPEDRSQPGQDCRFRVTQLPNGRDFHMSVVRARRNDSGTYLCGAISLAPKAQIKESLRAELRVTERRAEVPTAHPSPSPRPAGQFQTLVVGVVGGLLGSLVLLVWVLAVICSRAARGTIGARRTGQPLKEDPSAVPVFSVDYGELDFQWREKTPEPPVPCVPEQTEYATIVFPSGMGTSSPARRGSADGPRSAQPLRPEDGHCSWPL
Kind of assay: Jurkat-PD-1 Cell Binding High-Content Screening Assay (CBA). Particulars: PE-labeled PD-L1-Ig 20 nM final, Jurkat-hPD-1 cells; read-out: Jurkat HPD1 PDL1 IC50. Put shortly:
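Binding of 20 nM (final) PE-tagged PD-L1-Ig to compound-pretreated Jurkat-hPD-1 cells was measured by high-content imaging after 1 h. Pretreatment ran 2 h at 37 °C in DMEM with 10% fetal calf serum.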
Regarding `CC(C)C[C@H]1NC(=O)[C@H](C)N(C)C(=O)[C@H](Cc2ccc(C(=O)O)cc2)NC(=O)[C@H](Cc2ccc(-c3ccccc3)cc2)NC(=O)[C@H](Cc2ccc(C(=O)O)cc2)NC(=O)[C@H](Cc2cccc(C(F)(F)F)c2)NC(=O)[C@H](CC(=O)O)NC(=O)[C@H](Cc2ccc(C(=O)O)cc2)NC(=O)[C@H](C(C)O)NC(=O)CSC[C@@H](C(=O)N[C@H](CCN)C(=O)NCCOCCOCC(=O)NCCCCCCCCCCCCC(=O)O)NC(=O)[C@H](CC(=O)O)NC(=O)[C@H](C(C)C)NC(=O)[C@H](CC2CCCCC2)NC(=O)[C@H](CCN)NC1=O` (stereo partly drawn) [Example 2604] ({CH2CO}-[Thr(3ξ)][Phe(4-COOH)]D[Phe(3-CF3)][Phe(4-COOH)][Bip][Phe(4-COOH)][NMeA][dL][Dab][Cha]VDC[dDab][AEEA]-{NH(CH2)12COOH}; thioether N-14), the IC50 was determined as 428 nM.

Consider `CC(C)C[C@H]1NC(=O)[C@H](C)N(C)C(=O)[C@H](Cc2ccc(C(=O)O)cc2)NC(=O)[C@H](Cc2ccc(-c3ccccc3)cc2)NC(=O)[C@H](Cc2ccc(C(=O)O)cc2)NC(=O)[C@H](Cc2cccc(C(F)(F)F)c2)NC(=O)[C@H](CC(=O)O)NC(=O)[C@H](Cc2ccc(C(=O)O)cc2)NC(=O)[C@H](C(C)O)NC(=O)CSC[C@@H](C(=O)N[C@@H](CCN)C(=O)NCCOCCOCC(=O)NCCCCCCCCCCCCCCC(=O)O)NC(=O)[C@H](CC(=O)O)NC(=O)[C@H](C(C)C)NC(=O)[C@H](CC2CCCCC2)NC(=O)[C@H](CCN)NC1=O` (stereo partly drawn) [Example 2605] ({CH2CO}-[Thr(3ξ)][Phe(4-COOH)]D[Phe(3-CF3)][Phe(4-COOH)][Bip][Phe(4-COOH)][NMeA][dL][Dab][Cha]VDC[Dab][AEEA]-{NH(CH2)14COOH}; thioether N-14), for which the IC50 amounted to 615 nM.

Turning to `CC(=O)NCCCC[C@@H]1NC(=O)[C@H](C(C)(C)O)NC(=O)[C@H](CC2CCCCC2)NC(=O)[C@H](CCN)NC(=O)[C@@H](CC(C)C)NC(=O)[C@H](C)N(C)C(=O)[C@H](CCC(N)=O)NC(=O)[C@H](Cc2ccc(-c3ccccc3)cc2)NC(=O)[C@H](Cc2ccc(C(=O)O)cc2)NC(=O)[C@H](Cc2cccc(C(F)(F)F)c2)NC(=O)[C@H](CC(=O)O)NC(=O)[C@H](Cc2ccc(OCC(=O)O)cc2)NC(=O)[C@H](Cc2ccc(OCC(=O)O)cc2)NC(=O)CSC[C@@H](C(=O)N[C@@H](CCN)C(=O)NCCCCCCCCCCCCCCC(=O)O)NC1=O` [Example 2606] ({CH2CO}-Y(Carboxymethyl)Y(Carboxymethyl)D[Phe(3-CF3)][Phe(4-COOH)][Bip]Q[NMeA][dL][Dab][Cha][Val(3-OH)]K(Ac)C[Dab]-{NH(CH2)14COOH}; thioether N-14), the IC50 is 48.9 nM.

Regarding `CC(=O)NCCCC[C@@H]1NC(=O)[C@H](C(C)(C)O)NC(=O)[C@H](CC2CCCCC2)NC(=O)[C@H](CCN)NC(=O)[C@@H](CC(C)C)NC(=O)[C@H](C)N(C)C(=O)[C@H](CCC(N)=O)NC(=O)[C@H](Cc2ccc(-c3ccccc3)cc2)NC(=O)[C@H](Cc2ccc(CCC(=O)O)cc2)NC(=O)[C@H](Cc2cccc(C(F)(F)F)c2)NC(=O)[C@H](CC(=O)O)NC(=O)[C@H](Cc2ccc(OCC(=O)O)cc2)NC(=O)[C@H](Cc2ccc(OCC(=O)O)cc2)NC(=O)CSC[C@@H](C(=O)N[C@@H](CCN)C(=O)NCCCCCCCCCCCCCCC(=O)O)NC1=O` [Example 2607] ({CH2CO}-Y(Carboxymethyl)Y(Carboxymethyl)D[Phe(3-CF3)][Phe(4-CH2CH2COOH)][Bip]Q[NMeA][dL][Dab][Cha][Val(3-OH)]K(Ac)C[Dab]-{NH(CH2)14COOH}; thioether N-14), the IC50 is 35.1 nM.

With `CC(=O)NCCCC[C@@H]1NC(=O)[C@H](C(C)(C)O)NC(=O)[C@H](CC2CCCCC2)NC(=O)[C@H](CCN)NC(=O)[C@@H](CC(C)C)NC(=O)[C@H](C)N(C)C(=O)[C@H](CCC(N)=O)NC(=O)[C@H](Cc2ccc(-c3ccccc3)cc2)NC(=O)[C@H](Cc2ccc(C(=O)O)cc2)NC(=O)[C@H](Cc2cccc(C(F)(F)F)c2)NC(=O)[C@H](CC(=O)O)NC(=O)[C@H](Cc2ccc(OCC(=O)O)cc2)NC(=O)[C@H](Cc2ccc(OCC(=O)O)cc2)NC(=O)CSC[C@@H](C(=O)N[C@@H](CCN)C(=O)NCCOCCOCC(=O)NCCOCCOCC(=O)NCCCCCCCCCCCCCCC(=O)O)NC1=O` [Example 2608] ({CH2CO}-Y(Carboxymethyl)Y(Carboxymethyl)D[Phe(3-CF3)][Phe(4-COOH)][Bip]Q[NMeA][dL][Dab][Cha][Val(3-OH)]K(Ac)C[Dab][AEEA][AEEA]-{NH(CH2)14COOH}; thioether N-14), the IC50 was determined as 168 nM.

For the compound `CC(=O)NCCCC[C@@H]1NC(=O)[C@H](C(C)(C)O)NC(=O)[C@H](CC2CCCCC2)NC(=O)[C@H](CCN)NC(=O)[C@@H](CC(C)C)NC(=O)[C@H](C)N(C)C(=O)[C@H](CCC(N)=O)NC(=O)[C@H](Cc2ccc(-c3ccccc3)cc2)NC(=O)[C@H](Cc2ccc(C(=O)O)cc2)NC(=O)[C@H](Cc2cccc(C(F)(F)F)c2)NC(=O)[C@H](CC(=O)O)NC(=O)[C@H](Cc2ccc(OCC(=O)O)cc2)NC(=O)[C@H](Cc2ccc(C(F)(F)F)cc2)NC(=O)CSC[C@@H](C(=O)N[C@@H](CCN)C(=O)NCCOCCOCC(=O)NCCOCCOCC(=O)NCCCCCCCCCCCCCCC(=O)O)NC1=O` [Example 2610] ({CH2CO}-[Phe(4-CF3)]Y(Carboxymethyl)D[Phe(3-CF3)][Phe(4-COOH)][Bip]Q[NMeA][dL][Dab][Cha][Val(3-OH)]K(Ac)C[Dab][AEEA][AEEA]-{NH(CH2)14COOH}; thioether N-14), the IC50 was 350 nM.

For `CC(=O)NCCCC[C@@H]1NC(=O)[C@H](C(C)(C)O)NC(=O)[C@H](CC2CCCCC2)NC(=O)[C@H](CCN)NC(=O)[C@@H](CC(C)C)NC(=O)[C@H](C)N(C)C(=O)[C@H](CCC(N)=O)NC(=O)[C@H](Cc2ccc(-c3ccccc3)cc2)NC(=O)[C@H](Cc2ccc(C(=O)O)cc2)NC(=O)[C@H](Cc2cccc(C(F)(F)F)c2)NC(=O)[C@H](CC(=O)O)NC(=O)[C@H](Cc2ccc(OCC(=O)O)cc2)NC(=O)[C@H](Cc2ccc(C(F)(F)F)cc2)NC(=O)CSC[C@@H](C(=O)N[C@@H](CCN)C(=O)NCCOCCOCC(=O)NCCCCCCCCCCCCC(=O)O)NC1=O` [Example 2611] ({CH2CO}-[Phe(4-CF3)]Y(Carboxymethyl)D[Phe(3-CF3)][Phe(4-COOH)][Bip]Q[NMeA][dL][Dab][Cha][Val(3-OH)]K(Ac)C[Dab][AEEA]-{NH(CH2)12COOH}; thioether N-14), the IC50 is 60 nM.

In the case of `CC(C)C[C@H]1NC(=O)[C@H](C)N(C)C(=O)[C@H](Cc2ccc(C(=O)O)cc2)NC(=O)[C@H](Cc2ccc(-c3ccccc3)cc2)NC(=O)[C@H](Cc2ccc(C(=O)O)cc2)NC(=O)[C@H](Cc2cccc(C(F)(F)F)c2)NC(=O)[C@H](CC(=O)O)NC(=O)[C@H](Cc2ccc(C(=O)O)cc2)NC(=O)[C@H](C(C)O)NC(=O)CSC[C@@H](C(=O)N[C@@H](CCN)C(=O)NCCOCCOCC(=O)NCCCCCCCCCCCCC(=O)O)NC(=O)[C@H](CC(=O)O)NC(=O)[C@H](C(C)C)NC(=O)[C@H](CC2CCCCC2)NC(=O)[C@H](CCN)NC1=O` (stereo partly drawn) [Example 2612] ({CH2CO}-[Thr(3ξ)][Phe(4-COOH)]D[Phe(3-CF3)][Phe(4-COOH)][Bip][Phe(4-COOH)][NMeA][dL][Dab][Cha]VDC[Dab][AEEA]-{NH(CH2)12COOH}; thioether N-14), the IC50 stood at 62.9 nM.

Regarding `CC(C)C[C@H]1NC(=O)[C@H](C)N(C)C(=O)[C@H](Cc2ccc(C(=O)O)cc2)NC(=O)[C@H](Cc2ccc(-c3ccccc3)cc2)NC(=O)[C@H](Cc2ccc(C(=O)O)cc2)NC(=O)[C@H](Cc2cccc(C(F)(F)F)c2)NC(=O)[C@H](CC(=O)O)NC(=O)[C@H](Cc2ccc(C(=O)O)cc2)NC(=O)[C@H](C(C)O)NC(=O)CSC[C@@H](C(=O)N[C@@H](CCN)C(=O)NCCOCCOCC(=O)NCCOCCOCC(=O)NCCCCCCCCCCCCCCC(=O)O)NC(=O)[C@H](CCC(=O)O)NC(=O)[C@H](C(C)C)NC(=O)[C@H](CC2CCCCC2)NC(=O)[C@H](CCN)NC1=O` (stereo partly drawn) [Example 2613] ({CH2CO}-[Thr(3ξ)][Phe(4-COOH)]D[Phe(3-CF3)][Phe(4-COOH)][Bip][Phe(4-COOH)][NMeA][dL][Dab][Cha]VEC[Dab][AEEA][AEEA]-{NH(CH2)14COOH}; thioether N-14), the IC50 amounted to 383 nM.

Take `CC(C)C[C@H]1NC(=O)[C@H](C)N(C)C(=O)[C@H](CCC(N)=O)NC(=O)[C@H](Cc2ccc(-c3ccccc3)cc2)NC(=O)[C@H](Cc2ccc(C(=O)O)cc2)NC(=O)[C@H](Cc2cccc(C(F)(F)F)c2)NC(=O)[C@H](CC(=O)O)NC(=O)[C@H](Cc2ccc(OCC(=O)O)cc2)NC(=O)[C@H](Cc2ccc(OCC(=O)O)cc2)NC(=O)CSC[C@@H](C(=O)N[C@@H](CCN)C(=O)NCCOCCOCC(=O)NCCOCCOCC(=O)NCCCCCCCCCCCCCCC(=O)O)NC(=O)[C@H](CO)NC(=O)[C@H](C(C)(C)O)NC(=O)[C@H](CC2CCCCC2)NC(=O)[C@H](CCN)NC1=O` [Example 2614] ({CH2CO}-Y(Carboxymethyl)Y(Carboxymethyl)D[Phe(3-CF3)][Phe(4-COOH)][Bip]Q[NMeA][dL][Dab][Cha][Val(3-OH)]SC[Dab][AEEA][AEEA]-{NH(CH2)14COOH}; thioether N-14): the IC50 came to 190 nM.

For `CC(C)C[C@H]1NC(=O)[C@H](C)N(C)C(=O)[C@H](Cc2ccc(C(=O)O)cc2)NC(=O)[C@H](Cc2ccc(-c3ccccc3)cc2)NC(=O)[C@H](Cc2ccc(C(=O)O)cc2)NC(=O)[C@H](Cc2cccc(C(F)(F)F)c2)NC(=O)[C@H](CC(=O)O)NC(=O)[C@H](Cc2ccc(C(=O)O)cc2)NC(=O)[C@H](C(C)O)NC(=O)CSC[C@@H](C(=O)N[C@@H](CCN)C(=O)NCCOCCOCC(=O)NCCOCCOCC(=O)NCCCCCCCCCCCCC(=O)O)NC(=O)[C@H](CC(=O)O)NC(=O)[C@H](C(C)C)NC(=O)[C@H](CC2CCCCC2)NC(=O)[C@H](CCN)NC1=O` (stereo partly drawn) [Example 2615] ({CH2CO}-[Thr(3ξ)][Phe(4-COOH)]D[Phe(3-CF3)][Phe(4-COOH)][Bip][Phe(4-COOH)][NMeA][dL][Dab][Cha]VDC[Dab][AEEA][AEEA]-{NH(CH2)12COOH}; thioether N-14), the IC50 amounted to 64.1 nM.
